Laboratory results as given in patent US6395885B1, “Use of lithium salts of anionic dyes to enhance their light-fastness” (Avecia Limited, priority 1998, dated 2002).

Test: Light-fastness of ink jet prints on Xerox Acid paper faded in a weatherometer (colour difference ΔE)
Assay type: physicochemical
Description: Each ink was prepared by dissolving the Dye shown in the second column of Table 1 (0.35 g) in water (8.45 g) by adding ammonia and adjusting the pH to 9.5. 2-pyrrolidone (0.5 g), thiodiglycol (0.5 g) and Surfynol 465 (0.2 g) were then added and the mixture was stirred at ambient temperature. The resulting solution was filtered through a 0.45 μm filter to give the ink.
Each ink shown in Table 1 was loaded into a HP 560 ink jet printer and was applied to Xerox Acid paper using the ink jet printer. When the resulting prints had dried a portion of the print was mounted, half covered, and faded in an Atlas Ci35a weatherometer.
The light-fastness of the prints was assessed by measuring the colour difference (ΔE) between the faded and unfaded portions of the print using an X-Rite 939 spectrodensitometer. The time shown in the column marked ΔE in Table 1 refers to the number of hours the print was faded for in the weatherometer.
A low ΔE value indicates a small colour change after fading in the weatherometer and therefore a high light-fastness.
The light-fastness of Dyes (A) and (B) and the individual sodium and lithium salts thereof were measured as described in Example 1; namely by ink jet printing an ink containing the each dye onto Xerox Acid paper and fading the prints using an Xrite Weatherometer.

## COc1cc(N=Nc2cccc(S(=O)(=O)O)c2)ccc1NC(=O)Nc1ccc(N=Nc2cccc(S(=O)(=O)O)c2)cc1OC [Comparative (3), C.I. Direct Yellow 132]
Ink with 3.5 parts dye printed on Xerox Acid paper, faded 50 hours in Atlas Ci35a weatherometer, low ΔE = high light-fastness
  ΔE (50 hours): 10.77
Measured as in Example 1 (ΔE), ink jet print on Xerox Acid paper, 50 hours of fading
  Light-Fastness (after 50 hours): 11
